From patent US20070060636A1, “High enantiomeric purity dexanabinol for pharmaceutical compositions” (priority 2002, published 2007)
Read-outs that look alike come from different tables or passages of the source.

Tests used:
[1] = system: severe traumatic brain injury (TBI); experiment: Phase II study, single i.v. dose in patients with severe head trauma; type: in vivo, human; details: for AUC∞/Dose: severe TBI patients, mean ± SE, normalized for dose (mg/kg)
Experimental: A Phase II, double masked, multi-center study was conducted to evaluate the safety and tolerance of dexanabinol of high enantiomeric purity following a single intravenous administration in patients with severe head trauma (Knoller N. et al., Crit. Care Med. 30: 548-54, 2002). Treatment was administered within 6 hours of injury, based on the therapeutic window observed in relevant animal models. Additional objectives of the study were to evaluate the long-term outcome of the patients and to determine the optimal dose for Phase III studies.
Medical information was collected en route or upon arrival at the hospital to determine a patient's suitability for enrollment and a randomized patient number was assigned. Written informed consent was obtained from relatives, all eligible patients being in coma. Antihistamines (promethazine hydrochloride PHENERGAN® 25 mg and cimetidine 50 mg) were administered by intravenous bolus injection 15 minutes prior to study drug administration. Dexanabinol was manufactured and formulated as previously described (50 mg/ml in CREMOPHOR EL®:ethanol clinical formulation) and diluted into 100 ml saline prior to injection. Solutions of dexanabinol were infused intravenously using a peristaltic pump (Ivac) at a rate of 6 ml/min (or approximately 15 min/dose). The total doses of dexanabinol scheduled to be administered were 48, 150, or 200 mg per patient. Five milliliters of blood were removed (from the contralateral arm) at the end of the infusion, at 10 and 30 min, and at 1, 3, 6, 12, and 24 hours thereafter for determination of plasma dexanabinol concentrations. Pharmacokinetic parameters were estimated by non-compartmental methods (WinNonlin Professional version 3.2) up to 24 hr post-injection.
Primary end points included intracranial pressure (ICP), cardiovascular function (heart rate, mean arterial blood pressure, cerebral perfusion pressure and electrocardiogram), clinical laboratory tests, and adverse medical events. The clinical outcome was assessed by the Glasgow outcome scale throughout a six month follow-up period. The nature and incidence of adverse medical events were similar in all groups supporting the safety of dexanabinol of high enantiomeric purity. […] Dexanabinol is currently being tested in a Phase III clinical trial for TBI.

[2] = 2nd Phase I study, single i.v. dose 48 or 150 mg, healthy male volunteers; type: in vivo, human; details: for AUC∞/Dose: normalized for dose (mg/kg); for clearance / Cmax / MRT / AUC / AUC(0-inf) / half-life / Vd: male, human, plasma; for Vd: read-out: Vss
Experimental: Pharmacokinetic parameters were estimated by a non-compartmental method using WinNonlin Professional version 3.2 (Pharsight Corp., Mountain View, Calif.). The maximum plasma concentration (Cmax), when the drug is administered by infusion, is the concentration at the end of infusion. The Cmax following intravenous bolus administration is the value estimated by the software to be the concentration at t=0. The terminal slope (X) was estimated by linear regression through the last time points and used to calculate the terminal half-life (t1/2) from the following equation: t1/2=0.693/λ The area under the curve from time of dosing through the last time point (AUCz) was calculated by the linear trapezoid method. The AUC extrapolated to infinity (AUC∞) was calculated from the following equation: AUC∞=AUCz+Cz/λ where Cz is the concentration at the last time point predicted by the linear regression. AUC∞ was normalized for dose (mg/kg) and presented as AUC∞/Dose. Mean residence time (MRT), when the drug is administered by infusion is described by the following equation: MRT=(AUMC/AUC)−(TI)/2 Mean residence time after i.v. bolus administration is described by the following equation: MRT=(AUMC/AUC) where AUMC is the area under the first moment curve and TI is the length of infusion. Plasma clearance (CL), and the apparent volume of distribution at steady state (Vss) were calculated from the following equations: CL=Dose/AUC∞ Vss=MRT×CL
A second human Phase I study involving 24 healthy male volunteers was carried out to compare the pharmacokinetics of dexanabinol following a single i.v. dose of 48 mg or 150 mg. The subjects were divided into two groups of 12 subjects each. Each group was premedicated with ATOSIL® 25 mg (Promethazine H1 blocker), and ZANTAC® 50 mg (Ranitidine H2 blocker) intravenously, followed 15 minutes later by a single short intravenous infusion of dexanabinol lasting 15 minutes. Blood samples for pharmacokinetic assays for dexanabinol were collected immediately before premedication (T=0), immediately after dosing (T=0+) (at the end of the infusion), at 5, 10, 20, 30, 45, and 60 min, and 2, 4, 6, 8, 12, 16, 24, 48, 72 and 96 hr post-dosing. Blood was also collected from four subjects from group 2 ([…]) on Days 6, 10 and 14. For both dose levels, initial rapid declines in plasma concentration followed by a progressively slower decline were observed.
Pharmacokinetic parameters were estimated by non-compartmental methods up to 96 hr post-infusion, using WinNonlin Professional version 3.2 (Pharsight Corp., Mountain View, Calif., USA).

[3] = system: CB1 mediated activity; experiment: mice tetrad assay (suppression of spontaneous activity, hypothermia, catalepsy); type: in vivo; details: 50 mg/kg intravenously, dexanabinol according to the invention
Excerpt: The prepared sample was further tested for suppression of spontaneous activity, hypothermia, and catalepsy measured in the mice tetrad assay, and clearly produced adverse effects. […] Finally, it caused significant catalepsy, with the animals remaining immobile on the beam for almost 30 seconds.
Psychoactive cannabinoids have a variety of pharmacological effects that are evoked through interactions with the CB1 receptors predominantly expressed in the brain. The central nervous system effects that occur after in vivo exposure to HU-210 include euphoria, hypokinesia, hypothermia, anti-nociception, and catalepsy. Hypokinesia, hypothermia, anti-nociception, and catalepsy are the activities that form the basis of the “Tetrad assay” of CB1 mediated activity. […] The threshold for psychomimetic effects of oral THC in humans is in the range of 10-15 mg THC in an adult, i.e from about 0.16 to about 0.25 mg THC/kg body weight for adults of approximately 60 kg (“Cannabis and Cannabinoids, pharmacology, toxicology and therapeutic potential” edited by Grotenhermen and Russo, the Haworth Integrative Healing Press; Chapter 31 pp 345 and 351).
Dexanabinol according to the present invention was tested for suppression of spontaneous activity, hypothermia, and catalepsy in the mice tetrad assay.

[4] = human Phase I, 150 mg single i.v., reference itself
[5] = iv, 48 mg single i.v. infusion, healthy volunteers, mean ± SE
[6] = iv, 48 mg single i.v. infusion, healthy volunteers, mean ± SE, up to 96 hr
[7] = iv, 150 mg single i.v. infusion, healthy volunteers, mean ± SE
[8] = iv, 150 mg single i.v. infusion, healthy volunteers, mean ± SE, up to 96 hr

In the case of `CCCCCCC(C)(C)c1cc(O)c2c(c1)OC(C)(C)[C@H]1CC=C(CO)C[C@H]21` [dexanabinol, 1,1-dimethylheptyl-(3S,4S)-7-hydroxy-Δ^6-tetrahydrocannabinol], the “AUC∞/Dose” value ([1]; 48 mg single i.v. infusion (n = 10)) is reported as 51,846 ± 5,526 ng × min/ml, the “AUC∞/Dose” value ([1]; 150 mg single i.v. infusion (n = 20)) is reported as 43,542 ± 4,329 ng × min/ml and the “AUC∞/Dose” value ([1]; 200 mg single i.v. infusion (n = 21)) is reported as 69,007 ± 5,835 ng × min/ml. For the same molecule, the neurological outcome ([1]; Glasgow outcome scale, six month follow-up) was “trend toward faster and better neurological outcome”, the “Cmax Ratio to Phase II” value ([1]; human Phase II, 150 mg single i.v., reference itself) was 1.0 and the “safety in severe head injury” value ([1]; single i.v. 48, 150 or 200 mg within 6 hours of injury) was “safe and well tolerated”. The “intracranial pressure/cerebral perfusion pressure control” value ([1]; treated patients, without jeopardizing blood pressure) was “significantly better”, the “30 min plasma values as % of the end of infusion levels” value ([2]; 48 mg and 150 mg) was “about 11%” and the “AUC∞/Dose” value ([2]; 48 mg single i.v. infusion, healthy volunteers, mean ± SE) was 78,137 ± 4,305 ng × min/ml. For the same molecule, the “AUC∞/Dose” value ([2]; 150 mg single i.v. infusion, healthy volunteers, mean ± SE) was 93,408 ± 4,224 ng × min/ml, the “AUC∞ Ratio to Phase I” value [2, 4] was 1.0 and the “Cmax Ratio to Phase I” value [2, 4] was 1.0. It also gave a clearance ([2]; intravenous, 48 mg and 150 mg, read-out: Total plasma clearance (CL), average across the two dose groups) of 12 mL/min/kg, a Cmax ([2]; intravenous, after the 48 mg dose (0.63 mg/kg), read-out: Maximum plasma concentrations (Cmax)) of 1230 ng/mL and a Cmax ([2]; intravenous, at 150 mg (2.05 mg/kg), read-out: Maximum plasma concentrations (Cmax)) of 5000 ng/mL. For the same molecule, the MRT [2, 5] was 8.4 ± 0.5 h, the AUC [2, 6] was 811 ng·h/mL and the AUC(0-inf) [2, 6] was 824 ng·h/mL. It also gave a half-life [2, 6] of 31.2 ± 3.6 h, a Cmax ([2]; iv, 48 mg single i.v. infusion, healthy volunteers, mean ± SE, up to 96 hr, read-out: Cmax) of 1230 ng/mL and a clearance ([2]; iv, 48 mg single i.v. infusion, healthy volunteers, mean ± SE, read-out: CL) of 13.2 ± 0.7 mL/min/kg. For the same molecule, the Vd [2, 5] was 6.6 ± 0.5 L/kg, the MRT [2, 7] was 6.9 ± 0.4 h and the AUC [2, 8] was 3180 ng·h/mL. For the same molecule, the AUC(0-inf) [2, 8] was 3210 ng·h/mL, the half-life [2, 8] was 23.4 ± 1.8 h and the Cmax ([2]; iv, 150 mg single i.v. infusion, healthy volunteers, mean ± SE, up to 96 hr, read-out: Cmax) was 5010 ng/mL. The clearance ([2]; iv, 150 mg single i.v. infusion, healthy volunteers, mean ± SE, read-out: CL) was 10.9 ± 0.5 mL/min/kg, the Vd [2, 7] was 4.5 ± 0.4 L/kg and the “safety in human subjects” value ([2]; the two phase I studies) was “safe, well tolerated and no psychomimetic side effects were detected”. The “adverse effect in tetrad assay” value [3] was “no adverse effect”.
